Experimental data taken from article PMC12332157, “A preclinical study on the influence of linkers in [^68Ga]Ga-NOTA-X-RM26 radiotracers for PET imaging of GRPR expression” (EJNMMI Research, 2025).
Starred links: 1 amine or outer side, 2 acyl side, 3 side chain; linkers in the order of their positions; H or OH if unused. Non-standard residues stand in square brackets, D forms with d. Residues, ends and D or L forms follow the SMILES beside them. *: point of attachment. NOTA = O=C(O)CN1CCN(CC(=O)O)CCN(CC(=O)*)CC1; Sta = CC(C)C[C@H](N)[C@@H](O)CC(=O)O; X2 = O=C(COc1cccc(CN[*:1])c1)[*:2]

Tested on: PC-3 xenografts
Assay: PET/CT imaging of mice bearing PC-3 xenografts
Assay type: in vivo
Details: 2 h post injection, 100 pmol i.v.
Experimental: For PET/CT imaging, animals bearing PC-3 xenografts were used. The animals received a single intravenous injection of the corresponding ^68Ga-radiolabeled peptide (100 pmol, 1.2 MBq) and 2 h post injection they were euthanized using CO2. For image acquisition, Nano PET 3T (PET/MRI) and nanoScan (SPECT/CT) (Mediso Medical Imaging Systems, Budapest, Hungary) tomographs were used. Reconstruction of the PET scans was conducted using Nucline nanoScan 3.04.014.0000 software. CT data were reconstructed using Filter Back Projection in Nucline 2.03 Software (Mediso Medical Imaging Systems Ltd., Budapest, Hungary). For their fusion, Nucline 2.03 Software was used, and PET images are presented as maximum intensity projections (MIP) with an equivalent color scale.

uptake in PC-3 tumors on PET images: lower uptake
SMILES: CC(=O)N[C@@H](CCCCNC(=O)CN1CCN(CC(=O)O)CCN(CC(=O)O)CC1)C(=O)NCc1cccc(OCC(=O)N[C@H](Cc2ccccc2)C(=O)N[C@@H](CCC(N)=O)C(=O)N[C@@H](Cc2c[nH]c3ccccc23)C(=O)N[C@@H](C)C(=O)N[C@H](C(=O)NCC(=O)N[C@@H](Cc2c[nH]cn2)C(=O)N[C@@H](CC(C)C)[C@@H](O)CC(=O)N[C@@H](CC(C)C)C(N)=O)C(C)C)c1 [NOTA-mMA-RM26] (Ac-K(NOTA)[X2][dF]QWAVGH[Sta]L-NH2)
